Results reported in ChEMBL document CHEMBL1158086, “Phenolic marine natural products as aldose reductase inhibitors” (J Nat Prod, 2006).

experiment: Inhibition of human recombinant ALR2

Q: Which IC50 does the source give for `O=C(c1ccc(O)cc1)c1cncc(-c2ccc(O)cc2)n1` here?
A: 41.4 µM

Q: For `O=C1O/C(=C\c2ccc(O)c(Br)c2)C(c2ccc(O)cc2)=C1Cl`, which IC50 is on record?
A: 46.2 µM

Q: For `O=C1O/C(=C\c2cc(Br)c(O)c(Br)c2)C(c2ccc(O)cc2)=C1Cl`, which IC50 is on record?
A: 0.8 µM

Q: For `O=C1O/C(=C\c2cc(Br)c(O)c(Br)c2)C(c2ccc(O)c(Br)c2)=C1Cl`, which IC50 is on record?
A: 12.7 µM

Q: With `O=C(c1ccc(O)cc1)c1nc(-c2ccc(O)cc2)c[nH]1` as the molecule, how does the IC50 read?
A: 21.4 µM

Q: With `O=C(c1ccc(O)cc1)c1ncc(-c2ccc(O)cc2)nc1C(=O)c1ccc(O)cc1` as the molecule, how does the IC50 read?
A: 19.4 µM

Q: For `O=C1C=C(c2ccc(O)cc2)/C(=C/c2cc(Br)c(O)c(Br)c2)O1`, which IC50 is on record?
A: > 57 µM

Q: Which IC50 does the source give for `O=C1O/C(=C\c2ccc(O)c(Br)c2)C(c2ccc(O)c(Br)c2)=C1Cl` here?
A: 16.9 µM

Q: For `O=C1O/C(=C\c2cc(Br)c(O)c(Br)c2)C(c2cc(Br)c(O)c(Br)c2)=C1Cl`, which IC50 is on record?
A: 18.7 µM

Q: Which IC50 does the source give for `O=c1oc(-c2ccc(O)cc2)cn2cc(-c3ccc(O)c(I)c3)c(-c3ccc(O)cc3)c12` [LUKIANOL B] here?
A: 0.6 µM

Q: Which IC50 does the source give for `O=C1C=C(c2cc(Br)c(O)c(Br)c2)/C(=C/c2cc(Br)c(O)c(Br)c2)O1` [RUBROLIDE A] here?
A: 19.8 µM

Q: For `O=C1C=C(c2ccc(O)c(Br)c2)/C(=C/c2cc(Br)c(O)c(Br)c2)O1` [RUBROLIDE J], which IC50 is on record?
A: 48.1 µM

Q: With `O=C1NC(=O)[C@@]2(CCOc3ccc(F)cc32)N1` [SORBINIL] as the molecule, how does the IC50 read?
A: 3.6 µM
